Test results published in US12458538B2, “Functional wound healing dressings” (Ambient Biosciences, Inc., priority 2018, dated 2025).
“Also recorded” adds a separate entry of the source.

Key:
[1] = system: C57/BL6J mouse keratinocytes; assay: Scratch wound healing assay; format: cell-based
Experimental: (§1) Two established cell culture models of transwell migration and a scratch wound healing model with freshly isolated C57/BL6J mouse keratinocytes were used. First, the keratinocyte cultures were established by enzymatic separation of keratinocytes from the epidermal layer of mouse skin using a dispase (for isolating epidermal later of skin) and trypsin (for isolating keratinocytes from the epidermis) under gentle agitation. The collected cells were grown in SFM-keratinocyte medium (Life Technologies).
To assess the ability of keratinocytes to migrate and heal wound gaps, scratch wounds of uniform dimensions were created across keratinocyte monolayers and the cultures were left for healing in the presence or absence of VEGF or VEGF inhibitor.

[2] = system: TNFα, COL1A1, DSTN, TGFβ, IL-6 and COL3A1 expression in dermal fibroblasts; assay: LPS-induced scar-forming gene expression assay of dermal fibroblasts (qPCR); format: cell-based; conditions: LPS 500 ng/ml 3 days; VEGF 10 ng/ml; + control ideal storage, others exposed at 55° C. for 15 days
Experimental: Dermal fibroblasts were treated with lipopolysaccharide LPS (500 ng/ml) or vehicle PBS (No LPS control) for 3 days in the presence of vitrified VEGF (10 ng/ml) that was tested for stability against exposure to 55° C. from days 1-15.
LPS-treated cells exposed to VEGF (10 ng/ml) that underwent thermo-destabilization in the absence of vitrification served as negative control and the cells treated with VEGF that was subjected to neither vitrification nor destabilization served as positive control.
LPS-induced scar-forming gene expression profiles of dermal fibroblasts namely TNFα, COL1A1, DSTN, TGFβ, IL-6 and COL3A1 were measured by quantitative real-time PCR (qPCR), normalized to the expression of β-actin and expressed relative to the levels measured in No LPS control.

[3] = system: C57/BL6J mouse keratinocytes; assay: Transwell migration assay; format: cell-based
Experimental: as §1
To assess the ability of keratinocytes to migrate under the influence of VEGF, cells were trypsinized, collected by centrifugation and added to the upper chamber of transwell inserts while the No VEGF control or VEGF or VEGF+VEGF inhibitor were added to serum free medium placed in the lower chamber. The cells were allowed to migrate under normal growth conditions. At the end of 24 h, the cells that migrated under the influence of vehicle control or VEGF in lower chamber were counted visually and expressed as percent cell migration.

[4] = Activity of vitrified insulin after reconstitution; conditions: reconstitution by contact with water or a body fluid

Substance | number of cells that migrated into the scratch wound area ([1]; n=3) | keratinocyte scratch wound healing ([1]; scratch wounds on confluent keratinocyte monolayers) | LPS-induced scar-forming gene expression [2] | migration of keratinocytes, transwell ([3]; 24 h, serum free medium in lower chamber) | quantification of cell numbers in the transwell migration assay ([3]; n=3) | activity after reconstitution [4]
vascular endothelial growth factor [VEGF] | dramatic induction of keratinocyte migration | promote a dynamic healing in the scratch wound area; also recorded: stimulates migration of keratinocytes | strong suppressive effect on scar forming genes | stimulates migration of keratinocytes | dramatic induction of keratinocyte migration | 
vitrified insulin: insulin vitrified by the processes described, e.g. electrospun with pullulan and trehalose |  |  |  |  |  | indistinguishable from fresh insulin
